Results on 4 compounds are retold here after PMC5282848, “Ancient coexistence of norepinephrine, tyramine, and octopamine signaling in bilaterians” (BMC Biology, 2017).

Like-named read-outs stand apart in the source and are kept apart here.

Common to all, as to assay: Ca2+ mobilization, GFP-apoaequorin luminescence in CHO-K1 with Gα-16
The target in assay [1] is T1, P. dumerilii Tyramine-2 (Platynereis dumerilii, UniProt A0A1J0F4P1).
T1 construct: full-length in pcDNA3.1(+), expressed in CHO-K1 with Gα-16 and GFP-apoaequorin
T1 sequence (A0A1J0F4P1 1-460): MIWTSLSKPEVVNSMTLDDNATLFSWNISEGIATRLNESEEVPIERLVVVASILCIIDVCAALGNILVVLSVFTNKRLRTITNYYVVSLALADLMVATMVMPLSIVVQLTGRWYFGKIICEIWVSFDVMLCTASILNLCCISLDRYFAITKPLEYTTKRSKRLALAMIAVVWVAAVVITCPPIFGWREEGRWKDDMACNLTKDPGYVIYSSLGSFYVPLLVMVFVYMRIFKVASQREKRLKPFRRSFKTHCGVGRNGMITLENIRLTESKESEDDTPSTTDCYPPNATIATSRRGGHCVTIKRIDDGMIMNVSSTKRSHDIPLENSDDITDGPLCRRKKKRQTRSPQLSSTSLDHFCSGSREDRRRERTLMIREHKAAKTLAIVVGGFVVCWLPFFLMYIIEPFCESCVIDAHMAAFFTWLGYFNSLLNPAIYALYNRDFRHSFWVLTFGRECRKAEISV
It counts as cell-based. From the text: Ca2+ mobilization, GFP-apoaequorin luminescence in CHO-K1 with Gα-16 on P. dumerilii Tyramine-2

The target of assay [2] is T2, S. kowalevskii Tyramine-2B (Saccoglossus kowalevskii, UniProt A0ABM0LZ08).
T2 construct: gene LOC102801068; full-length in pcDNA3.1(+), expressed in CHO-K1 with Gα-16 and GFP-apoaequorin
T2 sequence (A0ABM0LZ08 1-489): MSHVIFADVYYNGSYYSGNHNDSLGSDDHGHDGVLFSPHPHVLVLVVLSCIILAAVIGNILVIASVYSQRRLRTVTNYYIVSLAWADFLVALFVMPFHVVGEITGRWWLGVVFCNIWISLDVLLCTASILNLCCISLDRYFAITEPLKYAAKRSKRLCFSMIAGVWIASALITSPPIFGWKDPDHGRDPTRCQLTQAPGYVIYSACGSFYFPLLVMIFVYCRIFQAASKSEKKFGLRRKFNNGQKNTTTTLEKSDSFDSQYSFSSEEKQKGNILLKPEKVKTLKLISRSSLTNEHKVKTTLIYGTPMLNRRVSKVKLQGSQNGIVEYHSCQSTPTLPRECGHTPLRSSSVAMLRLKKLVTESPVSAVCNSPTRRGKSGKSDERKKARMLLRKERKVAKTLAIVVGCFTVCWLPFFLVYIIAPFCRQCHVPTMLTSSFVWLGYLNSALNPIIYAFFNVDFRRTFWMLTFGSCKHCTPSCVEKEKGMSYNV
In kind it is cell-based. The text has this: Ca2+ mobilization, GFP-apoaequorin luminescence in CHO-K1 with Gα-16 on S. kowalevskii Tyramine-2B

Assay [3] concerns the target T3, S. kowalevskii Tyramine-1 (Saccoglossus kowalevskii, UniProt A0ABM0H1U8).
T3 construct: gene LOC100368763; full-length in pcDNA3.1(+), expressed in CHO-K1 with Gα-16 and GFP-apoaequorin
T3 sequence (A0ABM0H1U8 1-430): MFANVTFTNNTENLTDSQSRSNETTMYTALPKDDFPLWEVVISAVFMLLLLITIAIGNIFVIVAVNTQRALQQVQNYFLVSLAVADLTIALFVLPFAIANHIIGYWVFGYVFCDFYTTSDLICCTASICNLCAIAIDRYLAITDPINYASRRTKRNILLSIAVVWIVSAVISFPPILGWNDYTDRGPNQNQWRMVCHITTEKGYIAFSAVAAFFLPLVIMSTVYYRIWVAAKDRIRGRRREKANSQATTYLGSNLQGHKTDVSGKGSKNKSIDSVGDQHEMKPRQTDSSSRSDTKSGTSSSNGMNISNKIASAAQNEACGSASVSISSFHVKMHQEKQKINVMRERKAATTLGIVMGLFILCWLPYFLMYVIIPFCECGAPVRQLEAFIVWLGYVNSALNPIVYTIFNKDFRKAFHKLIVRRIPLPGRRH
In kind it is cell-based. The text has this: Ca2+ mobilization, GFP-apoaequorin luminescence in CHO-K1 with Gα-16 on S. kowalevskii Tyramine-1

Assay [4] concerns the target T4, S. kowalevskii Tyramine-2A (Saccoglossus kowalevskii, UniProt A0ABM0GNT8).
T4 construct: gene LOC100366600; full-length in pcDNA3.1(+), expressed in CHO-K1 with Gα-16 and GFP-apoaequorin
T4 sequence (A0ABM0GNT8 1-458): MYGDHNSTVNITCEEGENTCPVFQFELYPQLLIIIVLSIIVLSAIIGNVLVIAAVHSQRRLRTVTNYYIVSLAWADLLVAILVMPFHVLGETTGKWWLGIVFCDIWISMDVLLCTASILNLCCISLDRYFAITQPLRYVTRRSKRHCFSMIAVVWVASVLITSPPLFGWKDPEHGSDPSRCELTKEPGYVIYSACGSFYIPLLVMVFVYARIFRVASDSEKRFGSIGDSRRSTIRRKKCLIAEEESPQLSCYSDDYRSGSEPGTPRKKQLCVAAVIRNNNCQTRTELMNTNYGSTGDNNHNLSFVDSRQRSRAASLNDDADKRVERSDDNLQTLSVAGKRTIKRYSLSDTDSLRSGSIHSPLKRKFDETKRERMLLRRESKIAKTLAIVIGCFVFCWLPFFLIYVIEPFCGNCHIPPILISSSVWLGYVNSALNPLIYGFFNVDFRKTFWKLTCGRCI
In kind it is cell-based. From the text: Ca2+ mobilization, GFP-apoaequorin luminescence in CHO-K1 with Gα-16 on S. kowalevskii Tyramine-2A

Assay [5] addresses T5, P. dumerilii Tyramine-1 (Platynereis dumerilii, UniProt A0A0K0PUV5).
T5 construct: full-length in pcDNA3.1(+), expressed in CHO-K1 with Gα-16 and GFP-apoaequorin
T5 sequence (A0A0K0PUV5 1-428): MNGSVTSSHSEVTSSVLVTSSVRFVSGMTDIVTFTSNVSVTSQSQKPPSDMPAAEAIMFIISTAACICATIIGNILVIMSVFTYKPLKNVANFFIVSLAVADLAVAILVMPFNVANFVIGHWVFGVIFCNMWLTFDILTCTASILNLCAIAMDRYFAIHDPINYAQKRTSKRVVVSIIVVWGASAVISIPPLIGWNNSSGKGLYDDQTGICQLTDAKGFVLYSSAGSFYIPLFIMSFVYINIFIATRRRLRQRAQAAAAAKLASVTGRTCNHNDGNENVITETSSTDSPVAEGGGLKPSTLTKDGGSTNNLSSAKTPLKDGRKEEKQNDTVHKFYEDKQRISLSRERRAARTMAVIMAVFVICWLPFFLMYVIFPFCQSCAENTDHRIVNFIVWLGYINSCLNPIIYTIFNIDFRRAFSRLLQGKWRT
It counts as cell-based. The text has this:
Ca2+ mobilization, GFP-apoaequorin luminescence in CHO-K1 with Gα-16 on P. dumerilii Tyramine-1

Assay [6] addresses T6, P. dumerilii Octopamine α (Platynereis dumerilii, UniProt A0A1J0F445).
T6 construct: full-length in pcDNA3.1(+), expressed in CHO-K1 with Gα-16 and GFP-apoaequorin
T6 sequence (A0A1J0F445 1-603): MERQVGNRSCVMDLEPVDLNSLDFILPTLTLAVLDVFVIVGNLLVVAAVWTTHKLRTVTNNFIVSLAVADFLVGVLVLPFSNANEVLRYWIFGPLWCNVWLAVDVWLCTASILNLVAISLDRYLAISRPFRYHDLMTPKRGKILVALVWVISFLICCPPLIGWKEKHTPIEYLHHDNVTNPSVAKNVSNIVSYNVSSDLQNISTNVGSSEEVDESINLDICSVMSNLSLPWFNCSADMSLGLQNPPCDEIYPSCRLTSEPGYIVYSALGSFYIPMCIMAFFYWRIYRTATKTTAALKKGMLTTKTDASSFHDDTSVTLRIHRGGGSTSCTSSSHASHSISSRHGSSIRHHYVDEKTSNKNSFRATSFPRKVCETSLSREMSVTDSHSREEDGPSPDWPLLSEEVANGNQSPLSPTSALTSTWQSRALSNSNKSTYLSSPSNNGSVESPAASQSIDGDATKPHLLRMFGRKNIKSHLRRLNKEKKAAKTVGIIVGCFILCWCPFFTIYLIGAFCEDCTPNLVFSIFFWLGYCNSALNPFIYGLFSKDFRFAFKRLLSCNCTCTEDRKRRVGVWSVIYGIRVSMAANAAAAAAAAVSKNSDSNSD
It counts as cell-based. From the text: Ca2+ mobilization, GFP-apoaequorin luminescence in CHO-K1 with Gα-16 on P. dumerilii Octopamine α

Assay [7] has as its system T7, S. kowalevskii Octopamine α.
T7 construct: gene Octopamine alpha receptor; full-length in pcDNA3.1(+), expressed in CHO-K1 with Gα-16 and GFP-apoaequorin
It counts as cell-based, Saccoglossus kowalevskii. To be noted: agonist, HBSS, 1.8 mM Ca2+, 10 mM glucose. The text has this:
Ca2+ mobilization, GFP-apoaequorin luminescence in CHO-K1 with Gα-16 on S. kowalevskii Octopamine α

For `NCCc1ccc(O)cc1` [tyramine], the EC50 in assay [1] turned out to be 7 nM; in assay [2] it was 5.9 nM; in assay [3] it was 86 µM; in assay [4] it was 1 nM; in assay [5] it was 11 nM.

For the compound `Clc1cccc(Cl)c1NC1=NCCN1` [clonidine], the EC50 in assay [6] (read-out: Clonidine) is 140 nM; in assay [7] (read-out: Clonidine), 160 nM.

In the case of `NC[C@H](O)c1ccc(O)cc1` [octopamine], the EC50 in assay [6] (read-out: Octopamine) is 260 nM; in assay [7] (read-out: Octopamine), 690 nM.

As to `COC(=O)[C@@H]1[C@H]2C[C@H]3c4[nH]c5ccccc5c4CCN3C[C@@H]2CC[C@@H]1O` [yohimbine], the IC50 in assay [6] (read-out: Yohimbine) was 9 nM.
